Where two headings read alike, the source gives them in different places. Marks after values point to notes of the source that are not given here.
How the values were obtained:
[1] = Stability constants and speciation of Cu2+ complexes by potentiometric measurements; type: physicochemical; conditions: for pCu: calculated for theoretical solutions
Description: (§1) Caution! Perchlorate salts are explosive and should be handled with care; such compounds should never be heated as solids. The potentiometric titrations were carried out at 298.1 ± 0.1 K using 0.15 M NaClO4 as the supporting electrolyte. The experimental procedure (buret, potentiometer, cell, stirrer, microcomputer, etc.) has been fully described elsewhere. The acquisition of raw potentiometric data was performed with the computer program PASAT. The reference electrode was a Ag/AgCl electrode in a saturated KCl solution. The glass electrode was calibrated as a hydrogen-ion concentration probe by titration of previously standardized amounts of HCl with CO2-free NaOH solutions, and the equivalent point was determined by Gran’s method, , which gives the standard potential, E̊, and the ionic product of water (pK w = 13.73(1)). The computer program […] was used to calculate the protonation and stability constants. The HYSS program was used to obtain the distribution diagrams. The pH range investigated by using this technique was 2.5–11.0, in accordance with the linear response range of glass electrodes. The solutions were extensively deaerated with an argon flow before the potentiometric runs. A moderate argon flow was maintained throughout the course of the titrations. The different titration curves for each system (at least two) were treated either as a single set or as separate curves without significant variations in the values of the stability constants. Finally, the sets of data were merged and treated simultaneously to give the final stability constants.

[2] = Stability constants and speciation of Fe2+ complexes by potentiometric measurements; type: physicochemical; conditions: for pFe: calculated for theoretical solutions
Description: as §1

[3] = McCord–Fridovich nitroblue tetrazolium (NBT) SOD activity assay; type: biochemical
Description: First, the SOD activity of the complexes was studied by means of the nitroblue tetrazolium (NBT) method, also known as McCord–Fridovich method. This is a widely used, indirect method based on the side production of superoxide anions by the xanthine oxidase enzyme and their capture by the NBT dye to give formazan. − A compound displaying SOD activity decreases the flow of superoxide radical anions and, thereby, the production of formazan (see the representation of the fitting of the data in Figures and S13–S16). Thus, by following the absorption band of formazan at 560 nm, the SOD activity of the studied mimetic can be quantified. Blank experiments were recorded with the ligands alone without observing any effect. The values of IC50, defined as the amount of the compound necessary for achieving 50% inhibition of NBT reduction to formazan by the superoxide anion, together with the catalytic constants (k cat), were obtained as indicated in the Experimental Section and are summarized in Table .
The SOD-like activity was determined by using the nitroblue tetrazolium (NBT) method, which despite its limitations is frequently used to estimate the activity of SOD mimetics. − The assays were carried out in a pH = 7.4 50 mM HEPES buffer at 298 K. The xanthine (2.2 × 10^–4 M) and xanthine oxidase (ca. 3 UN) system was used to generate a reproducible and constant flux of superoxide anions. […] Data in the absence of the complex were used as a reference. […] The percentage of inhibition of the NBT reduction to formazan was used as a measure of the SOD activity of the compounds. The concentration of the complex required to yield 50% inhibition of NBT reduction (IC50) was determined from a plot of percentage inhibition versus complex concentration. The IC50 data were calculated from the mean values of (at least) three independent measurements. The catalytic constant was calculated from the IC50 using the equation k cat = k NBT[NBT]/IC50 where k NBT = (5.94 ± 0.5) × 10^4 M^–1 s^–1. −

[4] = Protonation constants by potentiometric and UV–vis titrations; type: physicochemical
Description: as §1
The solvents used were of spectroscopic or equivalent grade. Water was twice distilled and passed through a Millipore apparatus. The pH values were measured with a Metrohm 713 pH meter, and adjustments of the hydrogen-ion concentration of the solutions were made with diluted HCl and NaOH solutions. UV–vis absorption spectra were recorded between pH 2 and 11 with an Agilent 8453 spectrometer. The resulting data from the titrations were used to calculate the third protonation constant of ^ COOMe PyNMe 3 . For this, the HypSpec program was employed, considering all of the absorbance intensities in the range of 250 and 350 nm.

[5] = Table S2, 0.15 M NaClO4, 298.1 K, ref 1 of the SI, cited from earlier work
[6] = design: method as in footnotes c–f, numbers not given; conditions: Cu2+ complexes/salt/enzyme, literature data for comparison; ref footnotes c–f, numbers not given; cited from earlier work
[7] = Table S3, 0.15 M NaClO4, 298.1 K; ref 1 of the SI; cited from earlier work
[8] = design: method as in number not given; conditions: Mn2+ complexes of the ligands, recently reported; ref number not given; cited from earlier work
[9] = design: method as in earlier work; conditions: Table S3, 0.15 M NaClO4, 298.1 K; ref 1 of the SI; cited from earlier work
[10] = 0.15 M NaClO4, 298.1 K, potentiometry

Row | Structure (SMILES) | log K, H + HL ⇄ H2L (stepwise protonation constant) ([5]; potentiometry) | log K, H + L ⇄ HL (stepwise protonation constant) ([5]; potentiometry) | log β (∑log K, protonation) [5] | k cat (SOD catalytic constant) [6] | log K, [CuL(OH)]+ + H2O ⇄ [CuL(OH)2] + H+ [7] | log K, [CuL]2+ + H2O ⇄ [CuL(OH)]+ + H+ [7] | TON of catalase activity of the Mn2+ complexes [8] | log K, Fe2+ + L ⇄ [FeL]2+ (stability constant) [9] | log K, [FeL]2+ + H2O ⇄ [FeL(OH)] + H+ [9] | also measured
1 | COC(=O)c1cc2nc(c1)CN(C)CCN(C)CCN(C)C2 [^ COOMe PyNMe 3] |  |  |  |  |  |  |  |  |  | log K, Cu+L⇄[CuL] (stability constant) ([1]; 0.15 M NaClO4, 298.1 K): 16.84(3); log K, [CuL]+H2O⇄[CuL(OH)]+H ([1]; 0.15 M NaClO4, 298.1 K): –8.26(4); pCu ([1]; pH 7.4, [L]=[M]=1 µM): 9.79; pCu ([1]; pH 7.4, [L]=[M]=10 µM): 9.29; log K, Fe+L⇄[FeL] (stability constant) ([2]; 0.15 M NaClO4, 298.1 K): 9.46(2); log K, [FeL]+H2O⇄[FeL(OH)]+H ([2]; 0.15 M NaClO4, 298.1 K): –8.18(5); pFe ([2]; pH 7.4, [L]=[M]=1 µM): 6.27; pFe ([2]; pH 7.4, [L]=[M]=10 µM): 5.66; SOD activity of the Fe2+ complexes (in words) ([3]; NBT method, under the conditions of this study): negligible SOD activity; k cat (SOD catalytic constant) ([3]; metal complexes, calculated from IC50 as kNBT[NBT]/IC50, pH 7.4, [NBT] = 59 μM): 40.3 10^6 M^–1 s^–1; increase in the SOD catalytic constant of the Cu2+ complex on functionalization of the pyridine ([3]; relative to Cu2+ complexes of HPyNH3 or HPyNMe3): 34 fold; log K, H2L^(2+x)++H^+⇄H3L^(3+x)+ (stepwise protonation constant) ([4]; 0.15 M NaClO4, 298.1 K, obtained by UV–vis spectroscopic titration): 2.48(1) ^f; log K, HL^(1+x)++H^+⇄H2L^(2+x)+ (stepwise protonation constant) [4, 10]: 7.03(1); log K, L^x+H^+⇄HL^(1+x)+ (stepwise protonation constant) [4, 10]: 10.57(2); three protonation constants, span from first to third ([4]; potentiometric titrations (third constant of COOMePyNMe3 by UV)): 10.57 to 2.48 logarithmic units
2 | c1cc2nc(c1)CNCCNCCNC2 [^ H PyNH 3] | 7.96(1) | 10.54(1) | 20.40 | 1.7 10^6 M^–1 s^–1 | -10.7(1) | -8.68(8) | 25–37 | 12.68(2) | -6.94(5) | log K, H + H2L ⇄ H3L (stepwise protonation constant) ([5]; potentiometry): 1.90(1)
3 | CN1CCN(C)Cc2cccc(n2)CN(C)CC1 [^ H PyNMe 3] | 7.37(1) | 10.88(1) | 18.25 | 1.2 10^6 M^–1 s^–1 | -11.31(8) | -8.53(4) |  | 9.72(2) | -9.08(4) | log K, [FeL(OH)]+ + H2O ⇄ [FeL(OH)2] + H+ [9]: -10.58(5)
4 | COc1cc2nc(c1)CNCCNCCNC2 [^ MeO PyNH 3] |  |  |  |  |  |  | 25–37 |  |  | 
5 | Oc1cc2nc(c1)CNCCNCCNC2 [^ OH PyNH 3] |  |  |  |  |  |  | 25–37 |  |  | 
